According to US20230151021A1, “Compounds and Compositions for Treating Hematologic Malignancies” (priority 2020, published 2023):
Where a name gives a salt, the structure may show the parent alone.

Assays:
Raji cells = assay: cells; format: cell-based, human; settings: 100 nM for 72 h
[1] = system: 13 cell lines representing a range of hematologic malignancies; assay: Cell viability in panel of hematologic malignancy derived cell lines; settings: 100 nM, 72 hours
Procedure: Cell viability was determined after 72 hours by detecting luminescence. ALL, acute lymphoblastic leukemia; BL, Burkitt's lymphoma; DLBCL, diffuse large B-cell lymphoma; MCL, mantle cell lymphoma; AML, acute myeloid leukemia; MM, multiple myeloma; LCLs, lymphoblastoid cell lines.
(§2) 5000 cells as indicated were cultured in 96-well plate with 100 μl of media. On the next day, Brusatol or associated analogs were added once to the cells without media change. After treatment, the cells were incubated with 100 μl buffer for 10 minutes at room temperature following the instructions of CellTiter-Glo kit (Promega, Madison, Wis.). Luminescence was detected using a multi-mode reader Cytation 5 (BioTek, Winooski, Vt.). Brusatol or its analogs are dissolved in 100% ethanol and diluted in 1×PBS for treatment. Two independent experiments done in duplicates were performed.

[2] = plasma, 1 h
[3] = plasma, 1 h; remark: listed apart in the source
Toledo = assay: IC50 assays of biotin-conjugated compounds in multiple PDXs and lymphoma cells; settings: Homo sapiens
Procedure: as §2

PDX223 = assay: as above; settings: Homo sapiens
Procedure: as §2

PDX129 = assay: as above; settings: Homo sapiens
Procedure: as §2

Jeko-1 = assay: as above; settings: Homo sapiens
Procedure: as §2

Pfeiffer = assay: as above; settings: Homo sapiens
Procedure: as §2

PI3Kγ = biological target: T1, PI3Kγ (Homo sapiens, UniProt P48736); assay: Biotin pull-down / competitive binding assay in SU-DHL-4 cell lysates; settings: SU-DHL-4 lysate, without parent Brusatol
T1 construct: endogenous in cells; host or cells: SU-DHL-4 cells (lysate)
T1 sequence (P48736 whole entry): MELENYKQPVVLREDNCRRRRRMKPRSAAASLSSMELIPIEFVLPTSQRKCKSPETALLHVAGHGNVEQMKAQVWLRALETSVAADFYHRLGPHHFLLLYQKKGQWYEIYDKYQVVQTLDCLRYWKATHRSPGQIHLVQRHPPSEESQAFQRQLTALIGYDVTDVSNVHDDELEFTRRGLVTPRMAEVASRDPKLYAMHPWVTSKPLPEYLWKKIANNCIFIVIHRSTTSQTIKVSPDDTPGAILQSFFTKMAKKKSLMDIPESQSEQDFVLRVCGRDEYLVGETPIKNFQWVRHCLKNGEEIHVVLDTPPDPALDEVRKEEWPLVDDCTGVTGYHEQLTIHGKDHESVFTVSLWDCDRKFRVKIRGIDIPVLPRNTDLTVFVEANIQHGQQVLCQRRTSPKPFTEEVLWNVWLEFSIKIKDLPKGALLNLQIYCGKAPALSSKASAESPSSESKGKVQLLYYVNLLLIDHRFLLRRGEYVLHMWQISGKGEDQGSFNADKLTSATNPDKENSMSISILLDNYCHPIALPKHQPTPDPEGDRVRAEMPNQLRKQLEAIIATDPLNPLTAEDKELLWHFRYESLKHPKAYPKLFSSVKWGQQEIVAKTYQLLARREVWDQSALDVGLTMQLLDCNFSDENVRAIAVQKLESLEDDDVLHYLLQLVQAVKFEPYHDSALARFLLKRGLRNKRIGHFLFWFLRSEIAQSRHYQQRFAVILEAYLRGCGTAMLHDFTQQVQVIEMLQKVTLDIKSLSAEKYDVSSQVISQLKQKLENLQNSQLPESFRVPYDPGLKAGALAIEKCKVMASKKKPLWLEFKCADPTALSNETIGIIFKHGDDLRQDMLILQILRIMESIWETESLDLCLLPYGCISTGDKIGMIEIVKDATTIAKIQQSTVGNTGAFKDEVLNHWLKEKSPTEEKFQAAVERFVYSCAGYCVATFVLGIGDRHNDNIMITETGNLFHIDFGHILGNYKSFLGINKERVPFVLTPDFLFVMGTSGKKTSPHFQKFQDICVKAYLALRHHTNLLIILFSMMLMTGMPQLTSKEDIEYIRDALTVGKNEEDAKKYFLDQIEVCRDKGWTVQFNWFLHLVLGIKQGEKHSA
Procedure: (§1) 30 μg of purified GST-tagged proteins were pre-cleared with Dynabeads M-280 Streptavidin (Invitrogen, Carlsbad, Calif., USA). The supernatants were collected and incubated with Dynabeads M-280 Streptavidin and 0, 300 μM, or 500 μM of biotin-conjugated Brusatol derivatives (51052) overnight at 4° C. For the competitive binding assays, cell lysates from SU-DHL-4 cells were incubated with the biotin-conjugated Brusatol derivative (51048) alone or together with Brusatol as well as Dynabeads M-280 Streptavidin. The complexes were harvested and washed with PBS. The collected beads were mixed with SDS loading buffer for further analysis.

GST-tagged PI3Kγ = GST-tagged PI3Kγ (Homo sapiens, UniProt P48736); assay: Pull-down assay with purified GST-tagged protein; format: binding; settings: 0, 300 μM, or 500 μM
Sequence of GST-tagged PI3Kγ (P48736 whole entry): as above
Procedure: PIK3CG cDNA (Plasmid #20574) was purchased from Addgene and cloned into a pGEX-6P-1 vector (GE Healthcare, Madison, Wis., USA). This GST-tagged PIK3CG plasmid was transformed into E. coli BL21 (DE3)-competent cells (Life Technologies, Carlsbad, Calif., USA) for in vitro expression according to Molecular Cloning (Third Edition).
as §1

SMILES: COC(=O)[C@@]12OC[C@]34C([C@@H](O)[C@@H]1O)[C@@]1(C)CC(=O)C(OC(=O)C5CCCN5C(=O)OC(C)(C)C)=C(C)[C@@H]1C[C@H]3OC(=O)[C@H](OC(=O)C=C(C)C)[C@@H]24 (stereo partly drawn) [Compound 11, 1-(tert-butyl) 2-((1R,2S,3S,3aS,3a1R,4R,6aR,7aR,11aS)-1,2-dihydroxy-3-(methoxycarbonyl)-8,11a-dimethyl-4-((3-methylbut-2-enoyl)oxy)-5,10-dioxo-1,3,3a,4,5,6a,7,7a,10,11,11a,11b-dodecahydro-2H-3,3a1-(epoxymethano)dibenzo[de,g]chromen-9-yl)(2S)-pyrrolidine-1,2-dicarboxylate]
- activity on viability of Raji cells (in words) (Raji cells): moderate inhibition

SMILES: COC(=O)[C@@]12OC[C@]34C([C@@H](O)[C@@H]1O)[C@@]1(C)CC(=O)C(OC(=O)[C@@H](N)Cc5ccccc5)=C(C)[C@@H]1C[C@H]3OC(=O)[C@H](OC(=O)C=C(C)C)[C@@H]24 (stereo partly drawn) [Compound 14, methyl (1R,2S,3S,3aS,3a1R,4R,6aR,7aR,11aS)-9-((L-phenylalanyl)oxy)-1,2-dihydroxy-8,11a-dimethyl-4-((3-methylbut-2-enoyl)oxy)-5,10-dioxo-1,4,5,6a,7,7a,10,11,11a,11b-decahydro-2H-3,3a1-(epoxymethano)dibenzo[de,g]chromene-3(3aH)-carboxylate]
- inhibition of cell viability (in words) [1]: significantly inhibit cell viability

SMILES: COC(=O)[C@@]12OC[C@]34C([C@@H](O)[C@@H]1O)[C@@]1(C)CC(=O)C(OC(=O)CNC(=O)CN)=C(C)[C@@H]1C[C@H]3OC(=O)[C@H](OC(=O)C=C(C)C)[C@@H]24 (stereo partly drawn) [Compound 20, methyl (1R,2S,3S,3aS,3a1R,4R,6aR,7aR,11aS)-9-((glycylglycyl)oxy)-1,2-dihydroxy-8,11a-dimethyl-4-((3-methylbut-2-enoyl)oxy)-5,10-dioxo-1,4,5,6a,7,7a,10,11,11a,11b-decahydro-2H-3,3a1-(epoxymethano)dibenzo[de,g]chromene-3(3aH)-carboxylate]
- activity on viability of Raji cells (in words) (Raji cells): potent activities comparable to or higher than the parent brusatol

SMILES: COC(=O)[C@@]12OC[C@]34C([C@@H](O)[C@@H]1O)[C@@]1(C)CC(=O)C(OC(=O)C[C@H](C)NC(=O)C[C@H](C)N)=C(C)[C@@H]1C[C@H]3OC(=O)[C@H](OC(=O)C=C(C)C)[C@@H]24 (stereo partly drawn) [Compound 21, methyl (1R,2S,3S,3aS,3a1R,4R,6aR,7aR,11aS)-9-(((S)-3-((S)-3-aminobutanamido)butanoyl)oxy)-1,2-dihydroxy-8,11a-dimethyl-4-((3-methylbut-2-enoyl)oxy)-5,10-dioxo-1,4,5,6a,7,7a,10,11,11a,11b-decahydro-2H-3,3a1-(epoxymethano)dibenzo[de,g]chromene-3(3aH)-carboxylate]
- activity on viability of Raji cells (in words) (Raji cells): potent activities comparable to or higher than the parent brusatol

SMILES: COC(=O)[C@@]12OC[C@]34C([C@@H](O)[C@@H]1O)[C@@]1(C)CC(=O)C(OC(=O)[C@H](C)NC(=O)[C@H](C)N)=C(C)[C@@H]1C[C@H]3OC(=O)[C@H](OC(=O)C=C(C)C)[C@@H]24 (stereo partly drawn) [Compound 22, methyl (1R,2S,3S,3aS,3a1R,4R,6aR,7aR,11aS)-9-((L-alanyl-L-alanyl)oxy)-1,2-dihydroxy-8,11a-dimethyl-4-((3-methylbut-2-enoyl)oxy)-5,10-dioxo-1,4,5,6a,7,7a,10,11,11a,11b-decahydro-2H-3,3a1-(epoxymethano)dibenzo[de,g]chromene-3(3aH)-carboxylate]
- activity on viability of Raji cells (in words) (Raji cells): not active

SMILES: COC(=O)[C@@]12OC[C@]34C([C@@H](O)[C@@H]1O)[C@@]1(C)CC(=O)C(OC(=O)CNC(=O)CNC(=O)CN)=C(C)[C@@H]1C[C@H]3OC(=O)[C@H](OC(=O)C=C(C)C)[C@@H]24 (stereo partly drawn) [Compound 23, methyl (1R,2S,3S,3aS,3a1R,4R,6aR,7aR,11aS)-9-((glycylglycylglycyl)oxy)-1,2-dihydroxy-8,11a-dimethyl-4-((3-methylbut-2-enoyl)oxy)-5,10-dioxo-1,4,5,6a,7,7a,10,11,11a,11b-decahydro-2H-3,3a1-(epoxymethano)dibenzo[de,g]chromene-3(3aH)-carboxylate]
- activity on viability of Raji cells (in words) (Raji cells): potent activities comparable to or higher than the parent brusatol

SMILES: COC(=O)[C@@]12OC[C@]34C([C@@H](O)[C@@H]1O)[C@@]1(C)CC(=O)C(OC(=O)C[C@H](C)N)=C(C)[C@@H]1C[C@H]3OC(=O)[C@H](OC(=O)C=C(C)C)[C@@H]24 (stereo partly drawn) [Compound 26-TFA]
- Plasma stability remaining % at 60 min, human [2]: 44%
- Plasma stability remaining % at 60 min, rat [3]: 39%

SMILES: COC(=O)[C@@]12OC[C@]34C([C@@H](O)[C@@H]1O)[C@@]1(C)CC(=O)C(OC(=O)[C@@H]5CCCN5)=C(C)[C@@H]1C[C@H]3OC(=O)[C@H](OC(=O)C=C(C)C)[C@@H]24 (stereo partly drawn) [Compound 31, (1R,2S,3S,3aS,3a1R,4R,6aR,7aR,11aS)-1,2-dihydroxy-3-(methoxycarbonyl)-8,11a-dimethyl-4-((3-methylbut-2-enoyl)oxy)-5,10-dioxo-1,3,3a,4,5,6a,7,7a,10,11,11a,11b-dodecahydro-2H-3,3a1-(epoxymethano)dibenzo[de,g]chromen-9-yl L-prolinate]
- activity on viability of Raji cells (in words) (Raji cells): potent activities comparable to or higher than the parent brusatol
- inhibition of cell viability (in words) [1]: significantly inhibit cell viability

SMILES: CC(C)=CC(=O)O[C@H]1C(=O)O[C@@H]2C[C@H]3C(C)=C(O)C(=O)C[C@]3(C)C3[C@@H](O)[C@H](O)[C@@]4(C(=O)NCCCCCCNC(=O)CCC[C@@H]5SC[C@@H]6NC(=O)N[C@@H]65)OC[C@]32[C@@H]14 (stereo partly drawn) [Compound 51046, (1R,2S,3S,3aS,3a1R,4R,6aR,7aR,11aS)-1,2,9-trihydroxy-8,11a-dimethyl-5,10-dioxo-3-((6-(4-((3aS,4S,6aR)-2-oxohexahydro-1H-thieno[3,4-d]imidazol-4-yl)butanamido)hexyl)carbamoyl)-1,3,3a,4,5,6a,7,7a,10,11,11a,11b-dodecahydro-2H-3,3a1-(epoxymethano)dibenzo[de,g]chromen-4-yl 3-methylbut-2-enoate]
- IC50 (Toledo): 494 nM
- IC50 (PDX223): 8.97 µM
- IC50 (PDX129): 1640 nM
- IC50 (Jeko-1): 3010 nM
- IC50 (Pfeiffer): 8.91 µM

SMILES: COC(=O)[C@@]12OC[C@]34C([C@@H](O)[C@@H]1O)[C@@]1(C)CC(=O)C(OC(=O)CCCC[C@@H]5SC[C@@H]6NC(=O)N[C@@H]65)=C(C)[C@@H]1C[C@H]3OC(=O)[C@H](OC(=O)C=C(C)C)[C@@H]24 (stereo partly drawn) [Compound 51048, methyl (1R,2S,3S,3aS,3a1R,4R,6aR,7aR,11aS)-1,2-dihydroxy-8,11a-dimethyl-4-((3-methylbut-2-enoyl)oxy)-5,10-dioxo-9-((5-((3aS,4S,6aR)-2-oxohexahydro-1H-thieno[3,4-d]imidazol-4-yl)pentanoyl)oxy)-1,4,5,6a,7,7a,10,11,11a,11b-decahydro-2H-3,3a1-(epoxymethano)dibenzo[de,g]chromene-3(3aH)-carboxylate]
- IC50 (Toledo): > 10000 nM
- IC50 (PDX223): 3.56 µM
- IC50 (PDX129): 1730 nM
- IC50 (Jeko-1): 1190 nM
- IC50 (Pfeiffer): 3.17 µM
- binding activity with PI3Kγ (in words) (PI3Kγ): relatively strong

SMILES: COC(=O)[C@@]12OC[C@]34C([C@@H](O)[C@@H]1O)[C@@]1(C)CC(=O)C(OC(=O)CCCCCNC(=O)CCCC[C@@H]5SC[C@@H]6NC(=O)N[C@@H]65)=C(C)[C@@H]1C[C@H]3OC(=O)[C@H](OC(=O)C=C(C)C)[C@@H]24 (stereo partly drawn) [Compound 51052, methyl (1R,2S,3S,3aS,3a1R,4R,6aR,7aR,11aS)-1,2-dihydroxy-8,11a-dimethyl-4-((3-methylbut-2-enoyl)oxy)-5,10-dioxo-9-((6-(5-((3aS,4S,6aR)-2-oxohexahydro-1H-thieno[3,4-d]imidazol-4-yl)pentanamido)hexanoyl)oxy)-1,4,5,6a,7,7a,10,11,11a,11b-decahydro-2H-3,3a1-(epoxymethano)dibenzo[de,g]chromene-3(3aH)-carboxylate]
- association with GST-tagged PI3Kγ in vitro (in words) (GST-tagged PI3Kγ): formed a complex
- IC50 (Toledo): 388 nM
- IC50 (PDX223): 0.108 µM
- IC50 (PDX129): 76 nM
- IC50 (Jeko-1): 28 nM
- IC50 (Pfeiffer): 0.079 µM
